Measurements reported in patent publication US20100247606A1, “INTRAOCULAR SUSTAINED RELEASE DRUG DELIVERY SYSTEMS AND METHODS FOR TREATING OCULAR CONDITIONS” (ALLERGAN, INC., priority 2009, published 2010).

What was measured:
[1] = system: dog eye intraocular pressure (IOP); experiment: Percent change from baseline IOP after intraocular administration in Beagle dogs; assay type: in vivo; settings: for IOP reduction maintained through: compared to fellow eye
Method: Examples 3 to 7 below set forth in vivo (Beagle dogs) studies carried out by intraocular injection of microspheres or implant, suspended in aqueous vehicle (2% carboxy methylcellulose [CMC], 0.1% Tween 80 in 0.9% saline) or in a high viscosity, high shear rate gel (i.e. a suitable high molecular weight, polymeric hyaluronic acid). Microspheres or implant containing an anti-hypertensive agent was injected in one eye and placebo microspheres or implant was injected in the other eye as a control. IOP and hyperemia were monitored for multiweek periods. Ultra thin wall 25-27 gauge needles were used. When microspheres were used they were suspended in vehicle at 10% or 20% by weight.

dog eye = experiment: Hyperemia and ocular tolerability after intraocular administration in Beagle dogs; assay type: in vivo
Method: Microspheres or implant containing an anti-hypertensive agent was injected in one eye and placebo microspheres or implant was injected in the other eye as a control. IOP and hyperemia were monitored for multiweek periods. Ultra thin wall 25-27 gauge needles were used. When microspheres were used they were suspended in vehicle at 10% or 20% by weight.

[2] = anterior intravitreal administration, dog

CCCCC[C@H](O)c1ccc(N2C(=O)CC[C@@H]2COCc2ccc(C(=O)OC(C)C)s2)cc1 [Compound A, 5-{(R)-1-[4-((S)-1-Hydroxy-hexyl)-phenyl]-5-oxo-pyrrolidin-2-ylmethoxymethyl}-thiophene-2-carboxylic acid isopropyl ester]
IOP reduction maintained through ([1]; 50 microliter anterior vitreous injection): 3 days | maximum IOP reduction from baseline ([1]; 50 microliter intracameral injection, 0.1% in normal saline): about 50% | IOP reduction maintained through ([1]; 50 microliter intracameral injection): 3 days | maximum IOP reduction below baseline [1, 2]: about 30% | conjunctival hyperemia (dog eye; [2]): mild conjunctival hyperemia through day 3 | ocular inflammation at follow up examinations (dog eye; anterior vitreous injection): no signs of ocular inflammation | ocular inflammation at follow up examinations (dog eye; intracameral injection): no signs of ocular inflammation | subsequent conjunctival hyperemia recordings (dog eye; intracameral, after the first day): 0 | maximum conjunctival hyperemia score (dog eye; intracameral, near the site of injection, first day): +0.5 | tolerability (dog eye; neat injections in the anterior chamber and anterior vitreous): well tolerated
